“And” between values parts separate entries of the source, which are not always exact repeats. Equal values may be shown once.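 How tested: cells in 96-well plates exposed to compound for 48 hours at five concentrations. GI50: concentration for 50% inhibition of growth. TGI: concentration producing complete growth inhibition.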
Assays:
Assay in all cases: NCI anticancer screen, dose series, 48 h
[1] = system: UACC-62 melanoma
[2] = system: MDA-MB-231 breast
[3] = system: ACHN renal
[4] = system: SF-268 CNS
[5] = system: M14 melanoma
[6] = system: TK-10 renal
[7] = system: T-47D breast
[8] = system: U251 CNS
[9] = system: SNB-19 CNS
[10] = system: SK-MEL-5 melanoma

SMILES	GI50 [1] [nM]	TGI [1]	GI50 [2]	TGI [2]	GI50 [3] [nM]	TGI [3]	GI50 [4]	TGI [4]	GI50 [5]	TGI [5]	GI50 [6] [nM]	TGI [6]	GI50 [7] [nM]	TGI [7]	GI50 [8] [nM]	TGI [8]	GI50 [9] [nM]	TGI [9]	GI50 [10]	TGI [10]
COC1CC(C)C(OC)c2cc(O)cc(c2O)NC(=O)/C(C)=C/C=C\C(C)C(OC(N)=O)/C(C)=C\C(C)C1OC (stereo not given)	162	8890 nM and 5830 nM	291 nM and 243 nM and 1160 nM	10300 nM and 8540 nM	6710	12600 nM and 13200 nM	693 nM and 279 nM	21100 nM and 11000 nM	267 nM and 1270 nM	18700 nM and 10500 nM	2920	21100 nM and 10600 nM	446	18600 nM and 12900 nM	614	16100 nM and 23600 nM	649	23700 nM and 72300 nM	691 nM and 599 nM	18100 nM and 5290 nM
O=C(O)C1CCN(Cc2oc(CO)cc(=O)c2O)C1 (stereo not given)		> 100000 nM		> 100000 nM		> 100000 nM		> 100000 nM		> 100000 nM		> 100000 nM		> 100000 nM		> 100000 nM		> 100000 nM		> 100000 nM
CCCCC[C@H]1CC=C2C(=O)C=C[C@@H]2CC=CCCCC(=O)O[C@@H](CCCCC)CC=C2C(=O)C=C[C@@H]2CC=CCCCC(=O)O[C@@H](CCCCC)CC=C2C(=O)C=C[C@@H]2CC=CCCCC(=O)O1	204	545 nM	249 nM	697 nM	438	> 8750 nM	305 nM	7800 nM	279 nM	1790 nM	478	3530 nM	195	713 nM	158	315 nM	550	> 8750 nM	737 nM	1870 nM
